Experimental data reported in patent publication US20240000765A1, “COMBINATION TREATMENT OF LIVER DISORDERS” (Terns Pharmaceuticals, Inc., priority 2020, published 2024).
Read-outs that look alike come from different tables or passages of the source. Blank lines part the entries; values can stand above or below the compound they belong to.

What was measured:
[1] = other FXR agonists; cited from earlier work
THRβ = target: T1, THRβ (Homo sapiens, UniProt P10828); test: Binding activity to the thyroxine receptor beta; conditions: ratio of binding IC50
T1 sequence (P10828 1-461): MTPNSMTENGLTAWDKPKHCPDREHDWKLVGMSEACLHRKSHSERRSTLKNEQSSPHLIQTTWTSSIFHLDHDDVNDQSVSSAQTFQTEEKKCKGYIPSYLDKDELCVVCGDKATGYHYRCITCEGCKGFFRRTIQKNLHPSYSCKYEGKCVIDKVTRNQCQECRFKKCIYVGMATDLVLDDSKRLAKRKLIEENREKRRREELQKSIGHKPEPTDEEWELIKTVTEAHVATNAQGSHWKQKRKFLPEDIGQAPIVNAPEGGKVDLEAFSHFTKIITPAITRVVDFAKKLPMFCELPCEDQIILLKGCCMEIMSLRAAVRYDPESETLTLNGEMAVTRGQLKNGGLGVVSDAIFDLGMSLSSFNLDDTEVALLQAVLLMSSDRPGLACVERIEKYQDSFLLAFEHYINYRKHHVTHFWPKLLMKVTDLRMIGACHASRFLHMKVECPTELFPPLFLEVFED

THRα = target: T2, THRα (Homo sapiens, UniProt P10827); test: Binding activity to THRα; conditions: read-out: IC50 THRα binding force
T2 sequence (P10827 1-410 isoform P10827-2): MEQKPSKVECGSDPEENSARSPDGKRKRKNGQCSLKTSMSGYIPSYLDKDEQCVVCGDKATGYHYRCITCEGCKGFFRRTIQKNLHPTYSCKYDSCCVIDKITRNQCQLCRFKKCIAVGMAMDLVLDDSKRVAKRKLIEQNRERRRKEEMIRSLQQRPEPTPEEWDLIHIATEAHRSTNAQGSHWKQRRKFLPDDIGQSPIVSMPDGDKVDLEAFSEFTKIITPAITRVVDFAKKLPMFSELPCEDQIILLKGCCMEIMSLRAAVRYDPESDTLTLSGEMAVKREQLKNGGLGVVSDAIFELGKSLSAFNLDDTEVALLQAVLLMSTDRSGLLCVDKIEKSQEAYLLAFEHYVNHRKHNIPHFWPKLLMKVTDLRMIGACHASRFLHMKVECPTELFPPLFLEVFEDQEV

[2] = Pharmacokinetic evaluation in rats, intragastric infusion; format: in vivo; conditions: SD rats, intragastric 2 mg/kg
[3] = Clinical study, First Study (healthy volunteers, 14 days); format: in vivo; conditions: healthy human volunteers, oral daily 5, 75, 200 or 400 mg
[4] = Clinical study, Second Study (7 days, 7AC4); conditions: for % 7AC4 suppression at nadir: human subjects
mouse hepatocytes = test: In vitro metabolic stability in cryopreserved hepatocytes (mouse); format: in vitro ADME; conditions: well-stirred liver model
Procedure: (§1) In vitro half-life values were determined and scaled to predict hepatic clearance (CLpred) and hepatic extraction using the well-stirred liver model with no correction for plasma protein as described in Obach et al., The Prediction of Human Pharmacokinetic Parameters from Preclinical and In Vitro Metabolism Data, J. of Pharmacology and Experimental Therapeutics, vol. 283, no. 1, pp. 46-58 (1997).

human hepatocytes = test: In vitro metabolic stability in cryopreserved hepatocytes (human); format: in vitro ADME; conditions: well-stirred liver model
Procedure: as §1

[5] = PK/PD profile, 7 consecutive daily oral doses; format: in vivo; conditions: cynomolgus monkeys, oral 1 mg/kg, 7 consecutive days
dog hepatocytes = test: In vitro metabolic stability in cryopreserved hepatocytes (dog); format: in vitro ADME; conditions: beagle dog hepatocytes; well-stirred liver model
Procedure: as §1

[6] = Tissue distribution of radiolabeled (14C) compound after oral dose; format: in vivo; conditions: Long-Evans rats, oral 5 mg/kg (100 μCi/kg), up to 168 hours
Procedure: Plasma, liver, small intestine, cecum, kidney, lung, heart and skin tissue samples were collected up to 168 hours, and the amount of radioactive material at various time points was measured.

[7] = Pharmacokinetics assay, dog (IV and oral); format: in vivo, beagle dogs; conditions: beagle dog
Excerpt: (§2) Results are shown in FIG. 1A (IV administration) and FIG. 1B (oral administration), and in Table 2. […] Smaller Vdss in monkeys is correlated with higher plasma protein binding.

mouse model of NASH = test: Mouse model of NASH (high fat diet + CCl4), Compound 1
rat hepatocytes = test: In vitro metabolic stability in cryopreserved hepatocytes (rat); format: in vitro ADME; conditions: Sprague-Dawley rat hepatocytes; well-stirred liver model
Procedure: as §1

[8] = rat, in vivo, iv, 2 mg/kg
monkey hepatocytes = test: In vitro metabolic stability in cryopreserved hepatocytes (monkey); format: in vitro ADME; conditions: cynomolgus monkey hepatocytes; well-stirred liver model
Procedure: as §1

[9] = Pharmacokinetics assay, rat (IV and oral); format: in vivo, Sprague-Dawley (SD) rats; conditions: Sprague-Dawley rat, oral 10 mg/kg vs IV 1 mg/kg
Excerpt: as §2

[10] = system: FXR-regulated gene expression in liver and ileum; test: Mechanism of action: tissue RNA by RT-qPCR and RNAseq after a single oral dose; conditions: C57BL/6 mice, 6 hours; for number of differentially expressed NASH-related genes modulated vs vehicle (liver RNAseq): fold change≥1.5
[11] = Metabolism and excretion of radiolabeled (14C) compound; format: in vivo; conditions: SD rats, oral 5 mg/kg or IV 2 mg/kg
Procedure: Blood, bile, feces, and urine samples were collected from each rat for up to 168 hours.

[12] = system: FXR-regulated gene expression (SHP, BSEP, FGF-19) in human HuH7 hepatoma cells; test: Cell-based RNA assay of FXR-regulated gene expression; conditions: Huh-7, 11 h at 37° C., RT-qPCR
Procedure: […]. See Kawamata et al JBC 278 (11)[…] (2003). […]. After 30 min at RT, cAMP was measured using an HTRF readout. EC50 values for FXR-regulated gene expression were determined using a cell-based RNA assay. […] After 11 h at 37° C., RNA was isolated and analyzed by RT-qPCR using primers to FXR-related genes: small heterodimer partner (SHP), bile salt export pump (BSEP) and fibroblast growth factor 19 (FGF-19).

[13] = 10, 30, 100 mg/kg oral daily, 28 days
[14] = 10, 30, 100 mg/kg oral daily, 28 days, H&E
[15] = 10, 30, or 100 mg/kg oral daily, 28 days
[16] = single oral dose, Compound 1 10 mg/kg, OCA 30 mg/kg

SMILES: O=C(O)c1cc(F)c2nc(N3[C@@H]4CC[C@H]3C[C@@H](OCc3c(-c5ccccc5OC(F)(F)F)noc3C3CC3)C4)sc2c1 [tropifexor]
pruritus in longer term studies [1]: known to result in pruritus

SMILES: N#Cc1nn(-c2cc(Cl)c(Oc3n[nH]c(=O)c4c3CCCC4)c(Cl)c2)c(=O)[nH]c1=O [Compound 3]
THRα/β selectivity (factor) (THRβ): > 8.1
IC50 (THRα): > 10000 nM

Curve area [2]: 12854 ± 961 ng·h/mL
Peak blood drug concentration [2]: 1163 ± 97.1 ng/mL
Time to peak [2]: 5.3 ± 1.15 h
SMILES: CC(C)c1cc(Oc2c(Cl)cc(-n3nc(C#N)c(=O)[nH]c3=O)cc2Cl)n[nH]c1=O [Reference compound, 2-[3,5-Dichloro-4-(5-isopropyl-6-oxo-1,6-dihydropyridazin-3-yloxy)phenyl]-3,5-dioxo-2,3,4,5-tetrahydro[1,2,4]triazine-6-carbonitrile, reference compound]

Curve area [2]: 9242 ± 1245 ng·h/mL
Time to peak [2]: 5.33 ± 1.15 h
SMILES: CC1(C)CCc2c(Oc3c(Cl)cc(-n4cc(C#N)c(=O)[nH]c4=O)cc3Cl)n[nH]c(=O)c21 [Compound 6]

SMILES: N#Cc1nn(-c2cc(Cl)c(Oc3n[nH]c(=O)c4c(Cl)cccc34)c(Cl)c2)c(=O)[nH]c1=O [Compound 7]
THRα/β selectivity (factor) (THRβ): >6.80
IC50 (THRα): > 10000 nM

SMILES: Cn1cc(C(=O)O)c2ccc(N3CCC(OCc4c(-c5c(Cl)cccc5Cl)noc4C4CC4)CC3)cc21 [Compound 1]
incidences of pruritus [3]: no incidences of pruritus
Pruritus ([4]; 25 mg daily for 7 days): No
Pruritus ([4]; 75 mg daily for 7 days): No
Pruritus ([4]; 150 mg daily for 7 days): No
% 7AC4 suppression at nadir ([4]; oral 25 mg daily for 7 days): 75%
% 7AC4 suppression at nadir ([4]; oral 75 mg daily for 7 days): 82%
% 7AC4 suppression at nadir ([4]; oral 150 mg daily for 7 days): 93%
Pruritus ([4]; subjects taking the highest doses of Compound 1): no pruritus was observed
Hepatic Extraction (mouse hepatocytes): 80.7 ± 1.02%
In vitro Metabolic CLpred (mouse hepatocytes): 72.7 ± 1 mL/min/kg
Hepatic Extraction (human hepatocytes): 67.0 ± 1.73%
In vitro Metabolic CLpred (human hepatocytes): 13.8 ± 3.67 mL/min/kg
pharmacodynamics biomarker 7AC4 after repeated oral dosing [5]: sustained suppression
Hepatic Extraction (dog hepatocytes): 71.0 ± 2.49%
In vitro Metabolic CLpred (dog hepatocytes): 22 ± 0.83 mL/min/kg
tissues with the most radioactive material [6]: Liver, small intestine, and cecum had the most radioactive material
CL ([7]; IV 1 mg/kg): 9 mL/min/kg
Oral Bioavailability ([7]; oral 3 mg/kg vs IV 1 mg/kg): 82%
BSEP liver expression (CPM) Relative to Vehicle (mouse model of NASH; 30 mg/kg, NASH mice): 5.1
CYP7A1 liver expression (CPM) Relative to Vehicle (mouse model of NASH; 30 mg/kg, NASH mice): 0.02
CYP8B1 liver expression (CPM) Relative to Vehicle (mouse model of NASH; 30 mg/kg, NASH mice): 0.007
OST-B liver expression (CPM) Relative to Vehicle (mouse model of NASH; 30 mg/kg, NASH mice): 135.7
SHP liver expression (CPM) Relative to Vehicle (mouse model of NASH; 30 mg/kg, NASH mice): 4.6
liver triglyceride levels (mouse model of NASH; 100 mg/kg): statistically significant reduced
serum triglyceride concentration (mouse model of NASH; 100 mg/kg): statically significant reduction
serum ALT level (mouse model of NASH; [13]): reduced
serum AST level (mouse model of NASH; [13]): reduced
ballooning vs untreated NASH mice (mouse model of NASH; [14]): significantly reduced
inflammation vs untreated NASH mice (mouse model of NASH; [14]): significantly reduced
steatosis vs untreated NASH mice (mouse model of NASH; [14]): significantly reduced
serum total cholesterol level (mouse model of NASH; 10, 30, and 100 mg/kg): statistically significant reduction
collagen, type 1, alpha 1 expression in the liver vs control NASH mice (mouse model of NASH; 10, 30, or 100 mg/kg): decreased
NAFLD Activity Score (NAS) vs untreated NASH mice (mouse model of NASH; [15]): significantly lower
liver fibrosis (Sirius Red) vs untreated NASH control (mouse model of NASH; [15]): statistically significant reduced fibrosis
expression of inflammatory and fibrosis related genes (mouse model of NASH; mouse model of NASH): reduced
Hepatic Extraction (rat hepatocytes): 47.3 ± 0.78%
In vitro Metabolic CLpred (rat hepatocytes): 26.2 ± 0.5 mL/min/kg
change in distribution to the liver on co-administration of rifampin [8]: does not result in a significant change
Hepatic Extraction (monkey hepatocytes): 64.4 ± 0.28%
In vitro Metabolic CLpred (monkey hepatocytes): 28 ± 0.17 mL/min/kg
Oral Bioavailability [9]: 21%
induction of FXR-specific genes, liver vs ileum (RT-qPCR) ([10]; single oral 10 mg/kg): preferentially induces FXR-specific genes in the liver
number of differentially expressed NASH-related genes modulated vs vehicle (liver RNAseq) [10, 16]: 500
major elimination pathway [11]: biliary excretion
metabolite formed [11]: acyl glucuronide metabolite

SMILES: O=C(O)c1ccnc(N2CC(O)(c3ccc(OCc4c(-c5c(Cl)cccc5Cl)noc4C4CC4)cc3Cl)C2)c1 [cilofexor]
pruritus in longer term studies [1]: known to result in pruritus

SMILES: CC[C@H]1[C@@H](O)[C@@H]2[C@H](CC[C@]3(C)[C@@H]([C@H](C)CCC(=O)O)CC[C@@H]23)[C@@]2(C)CC[C@@H](O)C[C@@H]12 [OCA, obeticholic acid]
EC50 ([12]; read-out: BSEP Gene induction/HuH7 EC50): 200 nM
EC50 ([12]; read-out: FGF-19 Gene Induction/HuH7 EC50): 130 nM
EC50 ([12]; read-out: SHP Gene induction/HuH7 EC50): 200 nM
pruritus in longer term studies [1]: known to result in pruritus
number of global pathways enriched (liver RNAseq) [10, 16]: 6
number of differentially expressed NASH-related genes modulated vs vehicle (liver RNAseq) [10, 16]: 44
